Experimental findings from patent US5210089A, “D-rhamnono-1,5-lactone” (Monsanto Company, priority 1992, dated 1993) are described below.

Entries after “also recorded” stand apart in the source; their conditions may differ.

Holding throughout (assay type): biochemical
One experiment deals with T1, Lysosomal α-fucosidase (Homo sapiens, UniProt P04066).
T1 construct: human liver extracts; from tissue; host or cells: human liver extracts
T1 sequence (P04066 32-466): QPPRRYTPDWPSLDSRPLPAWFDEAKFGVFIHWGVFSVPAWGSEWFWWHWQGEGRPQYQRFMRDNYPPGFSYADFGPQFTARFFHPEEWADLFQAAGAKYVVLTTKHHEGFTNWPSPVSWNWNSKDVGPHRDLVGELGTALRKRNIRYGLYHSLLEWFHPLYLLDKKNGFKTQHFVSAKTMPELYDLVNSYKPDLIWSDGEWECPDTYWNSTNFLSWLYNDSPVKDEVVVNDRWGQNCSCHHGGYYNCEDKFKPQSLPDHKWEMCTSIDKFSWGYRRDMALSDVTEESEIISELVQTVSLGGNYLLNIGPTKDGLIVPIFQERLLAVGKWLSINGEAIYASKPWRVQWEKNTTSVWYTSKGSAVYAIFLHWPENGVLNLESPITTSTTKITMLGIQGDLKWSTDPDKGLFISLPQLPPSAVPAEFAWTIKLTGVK
As to the kind of experiment: Human liver glycosidase assay, lysosomal α-fucosidase. The settings on record: for inhibition at 1000 µM: 1 mM compound, human liver, read-out: Inhibition (%) at 1 mM, lysosomal α-fucosidase. Here is the method:
(§1) Melting points were recorded on a Kofler hot block. Proton nuclear magnetic resonance (δH) spectra were recorded on Varian Gemini 200 (at 200 MHz), Bruker WH 300 (300 MHz), or Bruker AM 500 (500 MHz) spectrometers. Carbon nuclear magnetic resonance (δC) spectra were recorded on a Varian Gemini 200 (50 MHz) or a Bruker 250 (62.9 MHz) spectrometer. Multiplicities were assigned using DEPT sequence on the Gemini and by off resonance decoupling on the Bruker. Spectra run in D2 O were referenced to methanol as an internal standard. All chemical shifts are quoted on the δ-scale. Infrared spectra were recorded on a Perkin-Elmer 297, or on a Perkin-Elmer 781 spectrophotometer. Mass spectra were recorded on VG Micromass 30F, ZAB lF, Masslab 20-250 or Trio-1 GCMS (DB-5 column) spectrometers using desorption chemical ionization (NH3 DCI), electron impact (EI), chemical ionization (NH3 CI) and fast atom bombardment (FAB) techniques, as stated. […] Concentrations were given in g/100 ml. Hydrogenations were run under an atmosphere of hydrogen gas maintained by inflated balloon. Microanalyses were performed by the microanalysis service of the DysonPerrins laboratory, Oxford UK. Thin layer chromatography (t.l.c.) was carried out on aluminum sheets coated with 60F254 silica. Plates were developed using either 5% v/v concentrated sulphuric acid in methanol, 0.2% w/v cerium (IV) sulphate and 5% ammonium molybdate in 2M sulphuric acid and 0.5% ninhydrin in methanol. Flash chromatography was carried out using Sorbsil C60 40/60 silica. Ion-exchange chromatography was performed using Dowex 50W-X8 (H) and Sigma CG 400 (Cl) resins. The resins were washed with 2M hydrochloric acid and 2M sodium hydroxide solution, respectively, and subsequently with distilled water, prior to use. Solvents and commercially available reagents were dried and purified before use according to standard procedures; dichloromethane was refluxed over and distilled from calcium hydride, N,N-dimethylformamide was distilled under reduced pressure from calcium hydride, methanol was distilled from magnesium methoxide, pyridine was distilled from, and stored over, potassium hydroxide and tetrahydrofuran was distilled from a purple solution of sodium benzophenone ketyl immediately before use. Hexane was distilled at 68° C. before use to remove involatile fractions. 2,3-O-Isopropylidene-L-gulono-1,4-lactone (9) [H. Ogura et al., J. Oro. Chem. 37, 72 (1972); G. W. J. Fleet Tetrahedron 45, 319 (1989)]and 2,3-O-isopropylidene-D-gulono-1,4-lactone (15) [L. M. Lerner et al., J. Org. Chem. 33, 1780 (1968)]were prepared from D- and L-Chem. gulonolactones [purchased from the Sigma Chemical Company] as reported previously. See, e.g., Fleet, U.S. Pat. No. 4,861,892. Human liver glycosidases were assayed in the absence and presence [1 mM] of each of the compounds using the appropriate buffered 4-methylumbellifeeryl-glycosides as substrates, as described previously. [B. Winchest et al., Biochem. J. 265, 277 (1990)]. Naringinase was assayed using pnitrophenyl α-L-rhamnoside (1.75 mM) as substrates, according to Romero [C. Romero et al., Anal. Biochem. 149, 566 (1985)].
(§2) The enzymes included human liver glycosidases and naringinase. The latter enzyme is a readily available endo-L-rhamnosidase described by Romero et al., Anal. Biochem. 149, 566 (1985).

For experiment [1], the system named is α-rhamnosidase (naringinase). The experiment is described as follows: Naringinase assay with p-nitrophenyl α-L-rhamnoside. The following applies: for Inhibition (%) at 1 mM, α-rhamnosidase (naringinase): 1 mM compound, p-nitrophenyl α-L-rhamnoside 1.75 mM. Here is the method: as §1, §2
A further experiment concerns the target T2, Lysosomal α-mannosidase (Homo sapiens, UniProt O00754).
T2 sequence (O00754 50-1011): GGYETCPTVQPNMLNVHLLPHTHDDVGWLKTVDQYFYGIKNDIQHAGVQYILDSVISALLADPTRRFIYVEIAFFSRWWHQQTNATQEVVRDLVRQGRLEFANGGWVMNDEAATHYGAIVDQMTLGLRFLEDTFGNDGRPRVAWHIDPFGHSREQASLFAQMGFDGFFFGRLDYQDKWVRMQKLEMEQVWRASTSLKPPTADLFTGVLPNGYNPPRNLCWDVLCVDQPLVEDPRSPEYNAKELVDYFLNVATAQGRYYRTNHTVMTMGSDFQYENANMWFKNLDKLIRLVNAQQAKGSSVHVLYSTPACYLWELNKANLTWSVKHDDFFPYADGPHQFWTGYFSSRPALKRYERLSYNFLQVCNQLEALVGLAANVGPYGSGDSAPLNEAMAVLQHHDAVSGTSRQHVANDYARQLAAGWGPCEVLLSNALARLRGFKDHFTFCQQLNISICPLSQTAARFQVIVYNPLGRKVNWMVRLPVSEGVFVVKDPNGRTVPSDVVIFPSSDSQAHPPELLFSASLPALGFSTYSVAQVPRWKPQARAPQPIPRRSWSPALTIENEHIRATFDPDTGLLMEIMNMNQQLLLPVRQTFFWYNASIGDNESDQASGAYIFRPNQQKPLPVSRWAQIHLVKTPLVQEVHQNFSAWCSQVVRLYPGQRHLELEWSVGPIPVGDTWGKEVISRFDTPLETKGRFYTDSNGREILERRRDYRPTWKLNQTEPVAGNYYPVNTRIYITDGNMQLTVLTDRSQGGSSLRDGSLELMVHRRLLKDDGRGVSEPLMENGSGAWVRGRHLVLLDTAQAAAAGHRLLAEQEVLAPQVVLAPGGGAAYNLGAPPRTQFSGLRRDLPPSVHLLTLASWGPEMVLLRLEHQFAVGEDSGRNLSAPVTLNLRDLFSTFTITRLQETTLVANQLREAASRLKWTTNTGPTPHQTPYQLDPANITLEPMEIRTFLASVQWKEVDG
As to the kind of experiment: Human liver glycosidase assay, lysosomal α-mannosidase. Set-up: human liver extracts; from tissue; host or cells: human liver extracts. The settings on record: for inhibition at 1000 µM: 1 mM compound, 4-methylumbelliferyl-glycoside substrate; for inhibition at 1000 µM / IC50: human liver; for IC50: read-out: I50, lysosomal α-mannosidase. The method, then:
as §1, §2

In the case of `C[C@@H]1NC(=O)[C@H](O)[C@H](O)[C@H]1O` [L-Rhamno-1,5-lactam (8), 6-Deoxy-L-mannono-δ-lactam], the inhibition (in general, the percentage by which the read-out fell short of the control) at 1000 µM at Lysosomal α-fucosidase came out at 0%. In experiment [1], the “Inhibition of α-rhamnosidase (in words)” value is listed as “no inhibitory activity” and the “Inhibition (%) at 1 mM, α-rhamnosidase (naringinase)” value (“Inhibition (%) at 1 mM” for short) worked out at 0%. The same molecule gave an inhibition at 1000 µM against Lysosomal α-mannosidase of 0%.

Turning to `C[C@H]1NC(=O)[C@@H](O)[C@@H](O)[C@@H]1O` [D-Rhamno-1,5-lactam (6), 6-Deoxy-D-mannono-δ-lactam], at Lysosomal α-fucosidase, the “Inhibition of α-fucosidase (in words)” value is “does not show any significant inhibition” and the inhibition at 1000 µM amounted to 0%. Moreover, in experiment [1], the “Inhibition of α-rhamnosidase (in words)” value is given as “not of α-rhamnosidase” and the “Inhibition (%) at 1 mM” value is given as 3%. At Lysosomal α-mannosidase, 1000 µM produced 86% inhibition and the IC50 turned out to be 100 µM. The “Inhibition of α-mannosidase (in words)” value on Lysosomal α-mannosidase (listed as D-rhamnono-1,5-lactone) was “inhibitor of α- and β-mannosidases; also recorded: better inhibitor of α-mannosidase than deoxymannojirimycin (1)”.

`O=C1N[C@H](CO)[C@@H](O)[C@H](O)[C@@H]1O` [Mannono-1,5-lactam (2), D-mannonolactam]: the inhibition at 1000 µM at Lysosomal α-fucosidase came out at 0%. Also, the “Inhibition (%) at 1 mM” value in experiment [1] was 12%. On Lysosomal α-mannosidase, 1000 µM produced 94% inhibition and the IC50 was 50 µM.
